Assay results as given in ChEMBL document CHEMBL1121852, “Nonsteroidal antiinflammatory agents. 3. Synthesis of the positional isomers of 4'-chloro-5-methoxy-3-biphenylylacetic acid and their antiinflammatory and analgesic activities” (J Med Chem, 1981).

Assays:
Rattus norvegicus [1] = experiment: Percent inhibition of carrageenan induced rat paw edema 3 hr after a peroral administration of 20 mg/kg; format: functional; conditions: route oral
[2] = Tested for acute toxicity after administration of compound at 50 mg/kg intraperitoneally in mice; format: organism-based; design: dose 50 mg/kg, route intraperitoneal; conditions: mouse, in vivo, ip
Mus musculus = experiment: Tested for inhibitory activity after administration of compound at 50 mg/kg perorally using AcOH writhing method; format: functional; conditions: route oral
Rattus norvegicus [3] = experiment: Percent inhibition of carrageenan induced rat paw edema 3 hr after a peroral administration of 50 mg/kg; format: functional; conditions: route oral
Rattus norvegicus [4] = experiment: Percent inhibition of carrageenan induced rat paw edema 3 hr after a peroral administration of 10 mg/kg; format: functional; conditions: route oral
Rattus norvegicus [5] = experiment: Percent inhibition after administration at 2 mg/kg perorally using carrageenan induced rat paw edema method; format: functional; conditions: route oral
Rattus norvegicus [6] = experiment: Percent inhibition of carrageenan induced rat paw edema 3 hr after a peroral administration of 0.5 mg/kg; format: functional; conditions: route oral

Q: What does the source list for `COc1ccc(CC(=O)O)cc1-c1ccc(Cl)cc1`?
A: inhibition in vivo at 20 mg/kg (Rattus norvegicus [1]): 19%; LD50 [2]: 673 mg/kg; ED50 (Mus musculus): 26.7 mg/kg; inhibition in vivo at 50 mg/kg (Rattus norvegicus [3]): 49%

Q: With `COc1cccc(CC(=O)O)c1-c1ccc(Cl)cc1` as the compound, how does the LD50 [2] read?
A: 566 mg/kg

Q: And the ED50 (Mus musculus)?
A: > 50 mg/kg

Q: What about the inhibition in vivo at 50 mg/kg (Rattus norvegicus [3]) of the same compound?
A: 0%

Q: For `COc1cccc(-c2ccc(Cl)cc2)c1CC(=O)O`, which LD50 [2] is on record?
A: 476 mg/kg

Q: What about the ED50 (Mus musculus) of the same compound?
A: > 50 mg/kg

Q: What about the inhibition in vivo at 50 mg/kg (Rattus norvegicus [3]) of the same compound?
A: 0%

Q: With `COc1ccc(CC(=O)O)c(-c2ccc(Cl)cc2)c1` as the compound, how does the LD50 [2] read?
A: 566 mg/kg

Q: And the ED50 (Mus musculus)?
A: > 50 mg/kg

Q: What about the inhibition in vivo at 50 mg/kg (Rattus norvegicus [3]) of the same compound?
A: 0%

Q: What does the source list for `COc1ccc(-c2ccc(Cl)cc2)cc1CC(=O)O`?
A: LD50 [2]: 566 mg/kg; ED50 (Mus musculus): > 50 mg/kg; inhibition in vivo at 50 mg/kg (Rattus norvegicus [3]): 0%

Q: Which results are given for `COc1c(CC(=O)O)cccc1-c1ccc(Cl)cc1`?
A: LD50 [2]: 283 mg/kg; ED50 (Mus musculus): > 50 mg/kg; inhibition in vivo at 50 mg/kg (Rattus norvegicus [3]): 16%

Q: With `COc1cc(CC(=O)O)cc(-c2ccc(Cl)cc2)c1` as the compound, how does the inhibition in vivo at 20 mg/kg (Rattus norvegicus [1]) read?
A: 65%

Q: And the LD50 [2]?
A: 570 mg/kg

Q: And the ED50 (Mus musculus)?
A: 16.1 mg/kg

Q: And the inhibition in vivo at 50 mg/kg (Rattus norvegicus [3])?
A: 53%

Q: What about the inhibition in vivo at 10 mg/kg (Rattus norvegicus [4]) of the same compound?
A: 39%

Q: With `COc1cc(-c2ccc(Cl)cc2)ccc1CC(=O)O` as the compound, how does the LD50 [2] read?
A: 400 mg/kg

Q: What about the ED50 (Mus musculus) of the same compound?
A: > 50 mg/kg

Q: What about the inhibition in vivo at 50 mg/kg (Rattus norvegicus [3]) of the same compound?
A: 27%

Q: With `COc1ccc(-c2ccc(Cl)cc2)c(CC(=O)O)c1` as the compound, how does the LD50 [2] read?
A: 566 mg/kg

Q: What about the ED50 (Mus musculus) of the same compound?
A: > 50 mg/kg

Q: What about the inhibition in vivo at 50 mg/kg (Rattus norvegicus [3]) of the same compound?
A: 13%

Q: Which results are given for `COc1cc(CC(=O)O)ccc1-c1ccc(Cl)cc1`?
A: inhibition in vivo at 20 mg/kg (Rattus norvegicus [1]): 27%; LD50 [2]: 238 mg/kg; ED50 (Mus musculus): 35.1 mg/kg; inhibition in vivo at 50 mg/kg (Rattus norvegicus [3]): 38%

Q: For `COc1ccc2c(c1)c(CC(=O)O)c(C)n2C(=O)c1ccc(Cl)cc1` [INDOMETHACIN], which inhibition in vivo at 2 mg/kg (Rattus norvegicus [5]) is on record?
A: 25%

Q: And the inhibition in vivo at 50 mg/kg (Rattus norvegicus [3])?
A: 45%

Q: What about the inhibition in vivo at 0.5 mg/kg (Rattus norvegicus [6]) of the same compound?
A: 19%
